Results: patent US6562834B2, “Combination comprising camptothecin and a stilbene derivative for the treatment of cancer” (Aventis Pharma S. A., priority 2000, dated 2003)

Tested on: colon adenocarcinoma C51
Assay: Antitumor effect and safety of CPT-11, combretastatin and their combinations in mice bearing colon adenocarcinoma C51
Format: in vivo
Method: This efficacy may be quantified, for example by the log10 cells killed, which is determined by the following formula:
log10 cells killed=T−C(days)/3.32×Td
in which T−C represents the time taken for the cells to grow, which is the mean time in days for the tumors of the treated group (T) to reach a predetermined value (1 g for example) and the tumors of the control group (C) to reach the same value, and Td represents the time in days needed for the volume of the tumors in the control group to double. (T. H. Corbett et al., Cancer, 40, 2660.2680 (1977); F. M. Schabel et al., Cancer Drug Development, Part B, Methods in Cancer Research, 17, 3-51, New York, Academic Press Inc. (1979)). A product is considered to be active if log10 cells killed is greater than or equal to 0.7. A product is considered to be very active if the log10 cells killed is greater than 2.8.
The effect of the combination of CPT-11 and combretastatin was evaluated in mice bearing colon adenocarcinoma C51. CPT-11 was given orally on days two through five, […], at different dosage levels. Combretastatin was administered intravenously, two times a day, on days one to five. In the combination arms, three different dosages of CPT-11 were administered orally twice daily on days two through five and three different dosages of combretastatin were administered intravenously twice a day on days one through five.
Combretastatin, administered intravenously, and CPT-11, administered orally, were tested in several different schedules as reported in Table IV. When used as a single agent, combretastatin was administered twice a day for five consecutive days. When CPT-11 was administered alone, it was given once a day for four consecutive days.
When administered sequentially, two schedules were used. When combretastatin was given first, it was administered on day 1, followed by administration of CPT-11 once a day on days 2-5. When CPT-11 was the first compound given in the sequence, it was administered once a day on days 1-4, followed by combretastatin on day 5.

Compound | Colon 51 PR (partial response: mice with decrease in tumor volume of at least 50% / mice tested) (single agent combretastatin IV 116.5 mg/kg/injection (highest non-toxic dose)) | Log10 Cell Kill (single agent combretastatin IV 116.5 mg/kg/injection (highest non-toxic dose), 2 x/day days 1-5, Colon 51) | highest non-toxic dose (CPT-11 oral, single agent, mice) | Log10 Cell Kill (single agent CPT-11 oral 400 mg/kg (highest non-toxic dose), Colon 51, tumor size 400-500 mg, Td = 2.4 d)
Combretastatin | 5/5 | 1.3 | – | –
CCc1c2c(nc3ccc(OC(=O)N4CCC(N5CCCCC5)CC4)cc13)-c1cc3c(c(=O)n1C2)COC(=O)[C@]3(O)CC [CPT-11, irinotecan] | – | – | 400 mg/kg | 1.1
